Test [1] deals with T2 cells loaded with indicated peptides. Kind of test: CTL activity generated from PBMC of different donors with IgE peptides on transfected Drosophila cells, chromium release. Type of test: cell-based, human. The note with it: x: number of donor from whom anti-IgE CTL was generated; N: number of donor tested. The method, then: CD8 T cells were purified from individual donors and cultured with Drosophila cells transfected with HLA-A2, hB7-1, hB7-2, hICAM-1 and hLFA-3 molecules in the presence of indicated peptides. After being cultured for six days, low doses of hIL-2 was added to the culture and re-stimulated with peptides loaded autologous adherent cells for an additional seven days. The CTLs were then harvested and the specific killing activities were tested with ^51Cr labeled T2 cells that loaded with indicated peptides FIGS. 9A through 9D by a standard chromium release assay. [table]

Test [2] has as its target T1, D^b class I molecules (Mus musculus, UniProt P01899).
T1 construct: Antigen-transporting deficient (TAP^−) RMAS cells (H-2^b); endogenous in cells; host or cells: RMA-S (TAP 2 deficient, H-2^b)
T1 sequence (P01899 25-362): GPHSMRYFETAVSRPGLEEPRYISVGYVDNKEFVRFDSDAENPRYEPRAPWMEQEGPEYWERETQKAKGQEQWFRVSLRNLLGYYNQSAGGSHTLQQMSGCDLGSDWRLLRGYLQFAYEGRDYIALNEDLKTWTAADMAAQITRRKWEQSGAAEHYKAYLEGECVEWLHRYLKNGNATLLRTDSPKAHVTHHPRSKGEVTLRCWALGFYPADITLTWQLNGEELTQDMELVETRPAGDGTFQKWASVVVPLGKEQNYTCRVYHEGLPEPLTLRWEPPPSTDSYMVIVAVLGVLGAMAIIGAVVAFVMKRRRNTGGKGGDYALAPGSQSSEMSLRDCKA
T1 sequence (P01887 21-119 partner): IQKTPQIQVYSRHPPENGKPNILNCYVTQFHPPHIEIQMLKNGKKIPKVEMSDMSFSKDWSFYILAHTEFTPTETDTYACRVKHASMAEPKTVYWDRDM
Put plainly: MHC class I stabilization assay on TAP- RMAS cells (H-2^b), flow cytometry. Format: binding. The note with it: for Stabilization of MHC: D^b, ratio of fluorescence intensity (with peptide - without peptide)/without peptide; for Binding to / stabilization of D^b, in words: MHC class I stabilization assay, RMAS cells. The method, then:
(§1) TAP 2 deficient RMA.S cells (FIG. 11B) or L^d transfected RMA.S cells (FIG. 11A) were incubated with indicated concentration of peptides at 28° C. overnight and then incubated at 37° C. for two to four hours. The cells were harvested and stained with mAb specific for L^d (FIG. 11B) or for D^b (FIG. 11A) and analyzed with FACScan.
(§2) The binding capacity of these synthetic peptides to L^d and D^b class I molecules were tested in an MHC class I stabilization assay (Cai et al. (1996) supra). Antigen-transporting deficient (TAP^−) RMAS cells (H-2^b) or L^d transfected RMAS (RMAS-L^d) cells were cultured in the presence of a titrated concentration of peptides at 27° C. After overnight culturing at 27° C., these cells were further cultured for two hours at 37° C. and the surface expression of L^d or D^b on the cells were analyzed by flow cytometry. […] Of the five peptides predicted bind to D^b, only IgE44 binds Db strongly and two peptides, IgE16 and IgE125, bind D^b weakly. […] Thus, a total of six peptides were identified that bind to either L^d or D^b MHC class I molecules.

Test [3] relates to peptides loaded RMAS (K^b, D^b) cells. Kind of test: In vitro generation of IgE peptide specific CTLs, 51Cr release against peptide loaded RMAS cells. The note with it: naive mouse CD8 T cells, Drosophila APC with D^b, B7-1, ICAM-1; Day 9. Type of test: cell-based. How it is done:
CD8^+ T cells were purified from lymph nodes of CBF1/J mice (FIGS. 2A, 2B and 2D) or from B6, interferon γ knock out mice (IFNγ^−/−) or perform (PF^−/−) knock out mice (FIG. 2C). The purified CD8 T cells were cultured with indicated IgE peptides presented by SC2 cells transfected with D^b MHC class I, B7-1 (CD80) and ICAM-1 (CD54) molecules. Low dose of recombinant IL-2 (20 units/ml) was added to the culture at Day 3 and every other day thereafter. On Day 9, CTL activity was measured against ^51Cr labeled RMAS cells loaded with or without indicated IgE peptides. In FIG. 2D, anti-D^b mAb (20 μg/ml) was added at the beginning of CTL assay.
(§3) CTL Assay: Epitope-bearing (target) cells are used as target cells in a ^51 Cr release assay. 5×10^6 target cells in RPMI medium containing 4% fetal calf serum, 1% HEPES buffer and 0.25% gentamycin are labeled at 37° C. for one hour with 0.1 mCi ^51Cr. Cells are washed four times and diluted to 10^5 cells/ml in RPMI with 10% fetal bovine serum (HyClone). In a 96-well microtiter plate, 100 μl effector CTLs and 100 μl peptide-loaded, ^51Cr-labeled target cells are combined at ratios of 100:1, 20:1 and 4:1 (effector: target). K562 cells are added at a ratio of 20:1 (K562) to reduce natural killer cell background lysis. Non-specific lysis is assessed using cells labeled with ^51Cr as described above, but not bearing the epitope cell line. Controls to measure spontaneous release and maximum release of ^51Cr are included in duplicate. After incubation at 37° C. for six hours, the plates are centrifuged and the supernatants counted to measure ^51Cr release. Percent specific lysis is calculated using the following equation: […]
The ability of these IgE peptides in eliciting CTL responses was evaluated in vitro. As previously described, Drosophila cells transfected with MHC class I plus B7-1 and ICAM-1 are potent antigen presenting cells (APC) in activation of resting naïve CD8 T cells in vitro. Resting naïve CD8 T cells were purified from mouse lymph nodes and cultured with peptide loaded Drosophila cells transfected with L^d or D^b plus B7-1 and ICAM-1 in the absence of cytokines. IL-2 (20units/ml) was added at Day 3 and every other day thereafter. The CTL activity towards peptides loaded RMAS (K^b, D^b) cells or RMAS-L^d cells were measured on Day 9.

In test [4] the test system is peptides loaded RMAS-L^d cells. Put plainly: In vitro generation of IgE peptide specific CTLs, 51Cr release against peptide loaded RMAS-L^d cells. Format: cell-based. The conditions noted are these: naive mouse CD8 T cells, Drosophila APC with L^d, B7-1, ICAM-1; Day 9. The method, then:
as §3
The ability of these IgE peptides in eliciting CTL responses was evaluated in vitro. […] The CTL activity towards peptides loaded RMAS (K^b, D^b) cells or RMAS-L^d cells were measured on Day 9.

Test [5] addresses T2, L^d class I molecules (Mus musculus, UniProt P01897).
T2 construct: expressed in transfected cells; host or cells: RMA-S (RMAS-L^d), TAP-deficient
T2 sequence (P01897 25-362): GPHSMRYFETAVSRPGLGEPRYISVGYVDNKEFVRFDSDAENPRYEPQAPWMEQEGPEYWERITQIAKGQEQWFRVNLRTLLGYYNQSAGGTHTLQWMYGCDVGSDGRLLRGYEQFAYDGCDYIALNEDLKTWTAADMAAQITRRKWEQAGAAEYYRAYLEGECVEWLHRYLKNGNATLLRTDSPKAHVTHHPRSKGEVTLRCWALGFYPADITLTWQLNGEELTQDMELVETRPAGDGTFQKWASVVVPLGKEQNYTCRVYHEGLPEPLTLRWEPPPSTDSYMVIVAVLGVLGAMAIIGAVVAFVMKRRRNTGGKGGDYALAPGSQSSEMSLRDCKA
T2 sequence (P01887 21-119 partner): T1 sequence (P01887 21-119 partner)
Put plainly: MHC class I stabilization assay on L^d transfected RMAS cells, flow cytometry. Type of test: binding. The note with it: for Stabilization of MHC: L^d, ratio of fluorescence intensity (with peptide - without peptide)/without peptide; for Binding to L^d, in words: MHC class I stabilization assay, RMAS-L^d cells. The method, then: as §1, §2
For orientation: In flow cytometry, cells or beads pass a laser one at a time.

Marks after values point to notes of the source that are not given here.

In the case of QMFTCRVAHT (Peptide antigen) [IgE 887], in test [1], the “Specific Killing (x/N)” value is recorded as 1/4.
Same read-out and setting: the same measure for SLLTVSGAWA (Peptide antigen) [IgE 876]: 0/5; for QVMDVDLSTA (Peptide antigen) [IgE 898]: 3/4.
Take WLEDGQVMDV (Peptide antigen) [IgE 883]: the “Specific Killing (x/N)” value in test [1] is on record as 1/5.
Turning to TLTVTSTLPV (Peptide antigen) [IgE 884], the “Specific Killing (x/N)” value in test [1] was 8/8.
In the case of WVDNKTFSV [IgE 96], the “Specific Killing (x/N)” value in test [1] is 3/8.
For TLACLIQNFM (Peptide antigen) [IgE 895], the “Specific Killing (x/N)” value in test [1] is 3/4.
Same read-out and setting: the same measure for WLSDRTYTC (Peptide antigen) [IgE 185]: 0/8.
Take GHILNDVSV (Peptide antigen) [IgE 125]: in test [2], the “Stabilization of MHC” value is recorded as “+ (less than two-fold is scored as “+”)” and the “Binding to / stabilization of D^b, in words” value (from here on “Binding to / stabilization”) is listed as “weakly”. For the same sequence, the “Specific CTL activity induced by the peptide, D^b restricted” value in test [3] was “No specific CTL activity”.
The matching figures for TASMTLGCL (Peptide antigen) [IgE 16]: “+ (less than two-fold is scored as “+”)”, “weakly” and “No specific CTL activity”.
With KPCKGTASM (Peptide antigen) [IgE 11], the “Specific CTL activity induced by the peptide, L^d restricted” value in test [4] is listed as “induces antigen specific CTLs”. Further, in test [5], the “Stabilization of MHC” value is reported as “++ (more than two fold is calculate as “++”)” and the “Binding to L^d, in words” value is listed as “strongly”.
For YATISLLTV (Peptide antigen) [IgE 890], the “Specific Killing (x/N)” value in test [1] is listed as 4/5.
Take HSTIQLYCF (Peptide antigen) [IgE 114]: in test [5], the “Stabilization of MHC” value is “+ (less than two-fold is scored as “+”)” and the “Binding to L^d, in words” value is listed as “weakly”.
Regarding SLNGTTMTL [IgE 47], the “Specific Killing (x/N)” value in test [1] was 7/8.
For GSNQGFFIF (Peptide antigen) [IgE 366], in test [4], the “Specific CTL activity induced by the peptide, L^d restricted” value is “inducing L^d restricted CTLs”. Moreover, in test [5], the “Stabilization of MHC” value is on record as “++^c (more than two fold is calculate as “++”)” and the “Binding to L^d, in words” value is given as “strongly”. In addition, the “Binding to / stabilization” value in test [2] is “^cIgE 366 also stabilizes D^b class I molecules”. The “Binding to / stabilization” value in test [2] (listed as IgE366) is “binds both L^d and D^b”. In test [3], the “Specific CTL activity induced by the peptide, D^b restricted” value is reported as “induce D^b restricted CTLs”.
Consider MSTVNFPAL (Peptide antigen) [IgE 44], for which, in test [2], the “Stabilization of MHC” value is listed as “++ (more than two fold is calculate as “++”)” and the “Binding to / stabilization” value was “strongly”. Besides, the “Specific CTL activity induced by the peptide, D^b restricted” value in test [3] is recorded as “specifically lysed”.
